Data on 22 compounds can be found in patent publication US20080188502A1, “New Compounds I” (AstraZeneca AB, priority 2006, published 2008).

Counter-ions that a name gives are not always drawn.

T1 sequence (P49841 whole entry): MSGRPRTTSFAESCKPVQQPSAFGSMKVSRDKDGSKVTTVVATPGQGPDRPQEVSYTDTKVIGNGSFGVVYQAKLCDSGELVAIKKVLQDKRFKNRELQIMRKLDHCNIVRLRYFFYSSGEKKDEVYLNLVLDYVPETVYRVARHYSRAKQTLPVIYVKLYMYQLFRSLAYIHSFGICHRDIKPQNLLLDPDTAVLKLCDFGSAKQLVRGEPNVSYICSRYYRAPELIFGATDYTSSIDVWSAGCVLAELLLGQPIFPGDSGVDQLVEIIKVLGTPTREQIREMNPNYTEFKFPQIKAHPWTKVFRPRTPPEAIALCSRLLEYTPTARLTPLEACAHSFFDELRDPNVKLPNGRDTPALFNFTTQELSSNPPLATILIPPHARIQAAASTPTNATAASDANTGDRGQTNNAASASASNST

The assay has as its target T1, recombinant human GSK3β (Homo sapiens, UniProt P49841).
T1 construct: purchased Dundee University, UK
In words: GSK3β Scintillation Proximity Assay (ATP competition). The format is biochemical. The conditions noted are these: inhibition constants calculated with Km of ATP for GSK3β of 20 μM; 1 μM ATP, 1 μM biotinylated peptide substrate. As to the method:
Determination of ATP Competition in Scintillation Proximity GSK3β Assay.
GSK3β Scintillation Proximity Assay.
The competition experiments were carried out in duplicate with 10 different concentrations of the inhibitors in clear-bottom microtiter plates (Wallac, Finland). A biotinylated peptide substrate, Biotin-Ala-Ala-Glu-Glu-Leu-Asp-Ser-Arg-Ala-Gly-Ser(PO3H2)-Pro-Gln-Leu (AstraZeneca, Lund), was added at a final concentration of 1 μM in an assay buffer containing 1 mU recombinant human GSK3β (Dundee University, UK), 12 mM morpholinepropanesulfonic acid (MOPS), pH 7.0, 0.3 mM EDTA, 0.01% β-mercaptoethanol, 0.004% Brij 35 (a […] detergent), 0.5% glycerol and 0.5 μg BSA/25 μl. The reaction was initiated by the addition of 0.04 μCi [γ-^33P]ATP (Amersham, UK) and unlabelled ATP at a final concentration of 1 μM and assay volume of 25 μl. After incubation for 20 minutes at room temperature, each reaction was terminated by the addition of 25 μl stop solution containing 5 mM EDTA, 50 μM ATP, 0.1% Triton X-100 and 0.25 mg streptavidin coated Scintillation Proximity Assay (SPA) beads (Amersham, UK). After 6 hours the radioactivity was determined in a liquid scintillation counter (1450 MicroBeta Trilux, Wallac). The inhibition curves were analysed by non-linear regression using GraphPad Prism, USA. The Km value of ATP for GSK3β, used to calculate the inhibition constants (Ki) of the various compounds, was 20 μM.
One may read the Ki as a measure of affinity in units of concentration, obtained from inhibition or displacement. Regarding `Cc1ncc(-c2nc(Nc3ccc(S(C)(=O)=O)cn3)ncc2F)n1C1CCOCC1` [Example 1, 5-Fluoro-N-[5-(methylsulfonyl)pyridin-2-yl]-4-[2-methyl-1-(tetrahydro-2H-pyran-4-yl)-1H-imidazol-5-yl]pyrimidin-2-amine hydrochloride], the Ki is 468 nM. For `Cc1ncc(-c2nc(Nc3ccc(S(C)(=O)=O)nc3)ncc2F)n1C1CCOCC1` [Example 2, 5-Fluoro-N-[6-(methylsulfonyl)pyridin-3-yl]-4-[2-methyl-1-(tetrahydro-2H-pyran-4-yl)-1H-imidazol-5-yl]pyrimidin-2-amine], the Ki was 40 nM.

As to `Cc1ncc(-c2nc(Nc3ccc(C(=O)N4CCN(C)CC4)cn3)ncc2F)n1C1CCOCC1` [Example 3, 5-Fluoro-N-{5-[(4-methylpiperazin-1-yl)carbonyl]pyridin-2-yl}-4-[2-methyl-1-(tetrahydro-2H-pyran-4-yl)-1H-imidazol-5-yl]pyrimidin-2-amine], the Ki was 661 nM. For `Cc1ncc(-c2nc(Nc3ccc(C(=O)N4CCN(C)CC4)nc3)ncc2F)n1C1CCOCC1` [Example 4, 5-Fluoro-N-{6-[(4-methylpiperazin-1-yl)carbonyl]pyridin-3-yl}-4-[2-methyl-1-(tetrahydro-2H-pyran-4-yl)-1H-imidazol-5-yl]pyrimidin-2-amine], the Ki was 63 nM. As to `Cc1ncc(-c2nc(Nc3ccc(C(=O)N4CCC4)nc3)ncc2F)n1C1CCOCC1` [Example 5, N-[6-(Azetidin-1-ylcarbonyl)pyridin-3-yl]-5-fluoro-4-[2-methyl-1-(tetrahydro-2H-pyran-4-yl)-1H-imidazol-5-yl]pyrimidin-2-amine], the Ki is 70 nM.

As for `CCOc1ccc(Nc2ncc(F)c(-c3cnc(C)n3C3CCOCC3)n2)cn1` [Example 10, (6-Ethoxy-pyridin-3-yl)-{5-fluoro-4-[2-methyl-3-(tetrahydro-pyran-4-yl)-3H-imidazol-4-yl]-pyrimidin-2-yl}-amine], the Ki is 45 nM. In the case of `COc1ncc(Nc2ncc(F)c(-c3cnc(C)n3C3CCOCC3)n2)cn1` [Example 11, {5-Fluoro-4-[2-methyl-3-(tetrahydro-pyran-4-yl)-3H-imidazol-4-yl]-pyrimidin-2-yl}-(2-methoxy-pyrimidin-5-yl)-amine], the Ki is 60 nM.

Regarding `CCCN(C(=O)c1ccc(Nc2ncc(F)c(-c3cnc(C)n3C3CCOCC3)n2)cn1)C(C)CC` (stereo not shown) [Example 12, N-Butan-2-yl-5-[[5-fluoro-4-[2-methyl-3-(oxan-4-yl)imidazol-4-yl]pyrimidin-2-yl]amino]-N-propyl-pyridine-2-carboxamide], the Ki was 29 nM.

Turning to `Cc1ncc(-c2nc(Nc3ccc(C(=O)N4CCC(F)(F)C4)nc3)ncc2F)n1C1CCOCC1` [Example 13, (3,3-Difluoropyrrolidin-1-yl)-[5-[[5-fluoro-4-[2-methyl-3-(oxan-4-yl)imidazol-4-yl]pyrimidin-2-yl]amino]pyridin-2-yl]methanone], the Ki is 34 nM. `Cc1ncc(-c2nc(Nc3ccc(C(=O)N4CCCC(C)C4)nc3)ncc2F)n1C1CCOCC1` (stereo not shown) [Example 14, [5-[[5-Fluoro-4-[2-methyl-3-(oxan-4-yl)imidazol-4-yl]pyrimidin-2-yl]amino]pyridin-2-yl]-(3-methyl-1-piperidyl)methanone]: the Ki was 16 nM. On to `Cc1ncc(-c2nc(Nc3ccc(C(=O)N(C)C(C)C)nc3)ncc2F)n1C1CCOCC1` [Example 15, 5-[[5-Fluoro-4-[2-methyl-3-(oxan-4-yl)imidazol-4-yl]pyrimidin-2-yl]amino]-N-methyl-N-propan-2-yl-pyridine-2-carboxamide], for which the Ki is 43 nM.

For the compound `Cc1ncc(-c2nc(Nc3ccc(C(=O)N4CCC(c5ccc(F)cc5)CC4)nc3)ncc2F)n1C1CCOCC1` [Example 16, [5-[[5-Fluoro-4-[2-methyl-3-(oxan-4-yl)imidazol-4-yl]pyrimidin-2-yl]amino]pyridin-2-yl]-[4-(4-fluorophenyl)-1-piperidyl]methanone], the Ki was 9 nM. Take `CCN1CCN(C(=O)c2ccc(Nc3ncc(F)c(-c4cnc(C)n4C4CCOCC4)n3)cn2)CC1` [Example 17, (4-Ethylpiperazin-1-yl)-[5-[[5-fluoro-4-[2-methyl-3-(oxan-4-yl)imidazol-4-yl]pyrimidin-2-yl]amino]pyridin-2-yl]methanone]: the Ki is 50 nM. Take `CCCCN1CCN(C(=O)c2ccc(Nc3ncc(F)c(-c4cnc(C)n4C4CCOCC4)n3)cn2)CC1` [Example 18, (4-Butylpiperazin-1-yl)-[5-[[5-fluoro-4-[2-methyl-3-(oxan-4-yl)imidazol-4-yl]pyrimidin-2-yl]amino]pyridin-2-yl]methanone]: the Ki is 47 nM. Turning to `CCN(C(=O)c1ccc(Nc2ncc(F)c(-c3cnc(C)n3C3CCOCC3)n2)cn1)C(C)C` [Example 19, N-Ethyl-5-[[5-fluoro-4-[2-methyl-3-(oxan-4-yl)imidazol-4-yl]pyrimidin-2-yl]amino]-N-propan-2-yl-pyridine-2-carboxamide], the Ki was 25 nM. On to `Cc1ncc(-c2nc(Nc3ccc(C(=O)N4CCCCC4)nc3)ncc2F)n1C1CCOCC1` [Example 20, [5-[[5-Fluoro-4-[2-methyl-3-(oxan-4-yl)imidazol-4-yl]pyrimidin-2-yl]amino]pyridin-2-yl]-(1-piperidyl)methanone], for which the Ki was 26 nM. In the case of `Cc1ncc(-c2nc(Nc3ccc(C(=O)N4CCN(C(C)C)CC4)nc3)ncc2F)n1C1CCOCC1` [Example 21, [5-[[5-Fluoro-4-[2-methyl-3-(oxan-4-yl)imidazol-4-yl]pyrimidin-2-yl]amino]pyridin-2-yl]-(4-propan-2-ylpiperazin-1-yl)methanone], the Ki was 90 nM. For the compound `Cc1ncc(-c2nc(Nc3ccc(C(=O)N(C(C)C)C(C)C)nc3)ncc2F)n1C1CCOCC1` [Example 22, 5-[[5-Fluoro-4-[2-methyl-3-(oxan-4-yl)imidazol-4-yl]pyrimidin-2-yl]amino]-N,N-dipropan-2-yl-pyridine-2-carboxamide], the Ki is 67 nM. Turning to `Cc1ncc(-c2nc(Nc3ccc(C(=O)N4C(C)CCCC4C)nc3)ncc2F)n1C1CCOCC1` (stereo not shown) [Example 23, (2,6-Dimethyl-1-piperidyl)-[5-[[5-fluoro-4-[2-methyl-3-(oxan-4-yl)imidazol-4-yl]pyrimidin-2-yl]amino]pyridin-2-yl]methanone], the Ki was 41 nM. With `CCCN(CCC)C(=O)c1ccc(Nc2ncc(F)c(-c3cnc(C)n3C3CCOCC3)n2)cn1` [Example 24, 5-[[5-Fluoro-4-[2-methyl-3-(oxan-4-yl)imidazol-4-yl]pyrimidin-2-yl]amino]-N,N-dipropyl-pyridine-2-carboxamide], the Ki was 24 nM. On to `COC1CCN(C(=O)c2ccc(Nc3ncc(F)c(-c4cnc(C)n4C4CCOCC4)n3)cn2)CC1` [Example 25, [5-[[5-Fluoro-4-[2-methyl-3-(oxan-4-yl)imidazol-4-yl]pyrimidin-2-yl]amino]pyridin-2-yl]-(4-methoxy-1-piperidyl)methanone], for which the Ki was 28 nM. Turning to `CCN(C)C(=O)c1ccc(Nc2ncc(F)c(-c3cnc(C)n3C3CCOCC3)n2)cn1` [Example 26, N-Ethyl-5-[[5-fluoro-4-[2-methyl-3-(oxan-4-yl)imidazol-4-yl]pyrimidin-2-yl]amino]-N-methyl-pyridine-2-carboxamide], the Ki was 31 nM.
